One assay relates to MUC1-wt. The assay can be described thus: Immunofluorescence imaging of MUC1-wt in P cells (Example 2). It counts as cell-based. The following applies: for EC50: 48 hr incubation, MUC1-wt; for WT ECMax (%) / WT EMax: 48 hr; for WT ECMax (%): DMSO = 0, JQ1 (250 nM) = −100% activity; for WT EMax: DMSO = 0, JQ1 = −100% activity, in %. As to the method: (§1) P cells were seeded 24 hr prior to compound treatment at a density of 12,000 cells/well in 384 well Cell Carrier Ultra plates (6057308, Perkin Elmer), pre-coated with 0.25 mg/mL Synthemax II SC Substrate (3535, Corning). Compounds were used at 5 doses (35, 3.5, 0.35, 0.035 and 0.0035 μM) for the primary screen and 10 doses (16, 5.6, 1.8, 0.6, 0.21, 0.07, 0.02, 0.008, 0.002 and 0.0008 μM) for the following screens. The compounds, in two replicates, were transferred from compound source plates to the cell plates using the HighRes Pin Tool. DMSO was used as a negative control and JQ1 (250 nM) (a bromodomain inhibitor) was chosen as a positive control, based on earlier studies showing its potent effect on reducing total MUC1 mRNA levels (data not shown). After 48 hr incubation, cells were fixed for 20 min in 4% PFA (Electron Microscopy Sciences) in PBS, washed twice, then permeabilized (10 min) with 0.5% Triton-X100 (X100-100ML, Sigma-Aldrich) in PBS and washed once more. Cells were blocked for 10 min at RT with Blocking solution (100 mM Tris HCL pH8; 150 mM NaCL; 5 g/L Blocking Reagent [11096176001, Roche]), then incubated 90 min at RT with one of the following primary antibodies in Roche Blocking solution: 1:500, monoclonal Fab-A-VSH anti-MUC1-fs, AbD22655.2, Bio-Rad; 1:2000, monoclonal mouse anti-MUC1 (214D4), 05-652-KC, Millipore; 1:1000, monoclonal, Rabbit anti-GM130 (D6B1) XP, 12480, Cell signaling technology. The primary antibody cocktail was incubated at RT for 1.5 hr, followed by four PBS wash cycles. The secondary antibody cocktail contained four components that were all prepared at a 1:1000 dilution in the Roche blocking solution and consisted of Alexa Fluor® 488-conjugated AffiniPure F(ab′)2 Fragment Goat anti-Human IgG, 109-546-097, Jackson Immunoresearch; Alexa Fluor® 647-conjugated Goat anti-Rabbit IgG, A-21246, Thermo Fisher Scientific®; Alexa Fluor® 546 Goat anti-mouse IgG, A-21123, Thermo Fisher Scientific® and Hoechst 33342 stain (62249, Thermo Fisher Scientific®). The secondary antibody cocktail was incubated at RT for 45 min, followed by four PBS wash cycles. Finally, plates were sealed with a Plate Loc plate and stored in Liconic incubator at 10° C. until imaging. Following image analysis, three parameters were selected, i) MUC1-fs and ii) MUC1-wt total cytoplasm intensity (averaged per cell) and iii) cell number as was detected by Hoechst 33342 stained nuclei. The levels of MUC1-fs and MUC1-wt found following DMSO and JQ1 were defined as 0 and −100% activity, respectively. The values obtained for all compounds were normalized accordingly. Cell number was normalized to DMSO control.

A further assay concerns MUC1-fs. The assay can be described thus: Immunofluorescence imaging of MUC1-fs in P cells (Example 2). It counts as cell-based. The following applies: for EC50: 48 hr incubation, MUC1-fs; for ECMax (%) / Emax: 48 hr; for ECMax (%): DMSO = 0, JQ1 (250 nM) = −100% activity; for Emax: DMSO = 0, JQ1 = −100% activity, in %. On the procedure: as §1

Read-outs that look alike come from different tables or passages of the source.

A word on the EC50: it is the concentration at which the effect is half-maximal.

As for `C[C@H]1CC[C@@]2(C1)[C@H]1CC[C@H](C1)[C@H]2N.Cl` [Compound 210-P1-A], the EC50 in the assay on MUC1-wt (read-out: WT EC50 (Cytoplasm)) is more than 32 µM; with MUC1-fs (read-out: EC50(Spot)), 26.9 µM. In addition, the “WT ECMax (%)” value in the assay on MUC1-wt came out at 0.73%. For the same compound, in the assay with MUC1-fs, the “ECMax (%)” value is given as −33.62%.

`Cl.NC1C2CCC(C2)C12CC1CCC2C1` (racemic) [Compound 238, rac-2,2′-spirobi[bicyclo[2.2.1]heptan]-3-amine hydrochloride]: the EC50 with MUC1-wt (hydrochloride, read-out: WT EC50) was 0.74 µM; with MUC1-fs (hydrochloride, read-out: EC50), 0.032 µM. Also, the “WT EMax” value in the assay on MUC1-wt is 68.9. The same compound gave an Emax in the assay on MUC1-fs of −96.4.

For the compound `Cl.NC(=O)C1CCCC2(C1)C1CCC(C1)C2N` (racemic) [Compound 224, rac-3-aminospiro[bicyclo[2.2.1]heptane-2,1′-cyclohexane]-3′-carboxamide hydrochloride], the EC50 in the assay on MUC1-wt (read-out: WT EC50) and in the assay on MUC1-fs (read-out: EC50) was more than 16 µM throughout. In addition, the “WT EMax” value with MUC1-wt is listed as −24.4. The compound further came in with an Emax with MUC1-fs of −17.0.

As to `Cl.N[C@@H]1[C@@H]2CC[C@@H](C2)C12CCCC(C(=O)N1CCCCC1)C2` (stereo partly drawn) [Compound 227, ((1S,3R,4R)-3-aminospiro[bicyclo[2.2.1]heptane-2,1′-cyclohexan]-3′-yl)(piperidin-1-yl)methanone hydrochloride], the EC50 in the assay with MUC1-wt (read-out: WT EC50) and with MUC1-fs (read-out: EC50) was more than 16 µM each time. Besides, in the assay on MUC1-wt, the “WT EMax” value was found to be 4.6. Besides, in the assay on MUC1-fs, the Emax is on record as −39.9.

Take `Cl.NCC1CCCC2(C1)C1CCC(C1)C2N` (racemic) [Compound 221, rac-3′-(aminomethyl)spiro[bicyclo[2.2.1]heptane-2,1′-cyclohexan]-3-amine hydrochloride]: the concentration for a half-maximal effect (EC50) with MUC1-wt (read-out: WT EC50) and with MUC1-fs (read-out: EC50) was more than 16 µM in each case. In addition, the “WT EMax” value with MUC1-wt amounted to 15.6. This compound also came in with an Emax in the assay with MUC1-fs of 16.2.

Consider `C[C@]1(N)[C@@H]2CC[C@@H](C2)C12CCCCC2.Cl` [Compound 234, (1S,3S,4R)-3-methylspiro[bicyclo[2.2.1]heptane-2,1′-cyclohexan]-3-amine hydrochloride], for which the EC50 is more than 16 µM in the assay on MUC1-wt (read-out: WT EC50) and 4.83 µM with MUC1-fs (read-out: EC50). In addition, the “WT EMax” value in the assay on MUC1-wt is reported as 6.7. In the assay with MUC1-fs, this compound yielded an Emax of −96.

On to `CN(C)CC1CCCC2(C1)C1CCC(C1)C2N.Cl` (racemic) [Compound 223, rac-3′-((dimethylamino)methyl)spiro[bicyclo[2.2.1]heptane-2,1′-cyclohexan]-3-amine hydrochloride], for which the EC50 with MUC1-wt (read-out: WT EC50) and in the assay with MUC1-fs (read-out: EC50) was more than 16 µM each time. Further, the “WT EMax” value in the assay on MUC1-wt was determined as 25.7. Further, the Emax in the assay on MUC1-fs was −12.

As to `Cl.NC1C2CCC(C2)C12CC=CC2` (racemic) [Compound 248, rac-spiro[bicyclo[2.2.1]heptane-2,1′-cyclopentan]-3′-en-3-amine hydrochloride], the EC50 with MUC1-wt (read-out: WT EC50) worked out at 9.8 µM; with MUC1-fs (read-out: EC50) it was 0.11 µM. Moreover, the “WT EMax” value in the assay with MUC1-wt came out at 36.5. In the assay with MUC1-fs, this compound came in with an Emax of −83.1.

As to `C[C@H]1CCC[C@]2(C1)[C@H]1CC[C@H](C1)[C@H]2N.Cl` [Compound 214-P1-B], the 50% effective concentration (EC50) in the assay on MUC1-wt (read-out: WT EC50 (Cytoplasm)) was more than 32 µM; with MUC1-fs (read-out: EC50(Spot)) it was 12.1 µM. For the same compound, the “WT ECMax (%)” value with MUC1-wt is −12.08%. In the assay on MUC1-fs, the “ECMax (%)” value was −58.73%.

With `CC12CC3(CC1(C)C2)C1CCC(C1)C3N.Cl` (racemic) [Compound 237, rac-1′,5′-dimethylspiro[bicyclo[2.2.1]heptane-2,3′-bicyclo[3.1.0]hexan]-3-amine hydrochloride], the EC50 was more than 16 µM with MUC1-wt (read-out: WT EC50) and 13.3 µM with MUC1-fs (read-out: EC50). In addition, the “WT EMax” value in the assay with MUC1-wt was −10.0. Besides, the Emax with MUC1-fs is reported as −45.1.

For the compound `COC1CC2(CC1OC)C1CCC(C1)C2N.Cl` (racemic) [Compound 229, rac-3′,4′-dimethoxyspiro[bicyclo[2.2.1]heptane-2,1′-cyclopentan]-3-amine hydrochloride], the EC50 was more than 16 µM with MUC1-wt (read-out: WT EC50) and 15.5 µM with MUC1-fs (read-out: EC50). In addition, the “WT EMax” value in the assay with MUC1-wt was determined as 10.3. Also, in the assay with MUC1-fs, the Emax is listed as −48.1.

The record behind these values is US11840495B2, “Compositions and methods related to di-substituted bicyclo[2.2.1] heptanamine-containing compounds” (The Broad Institute, Inc., priority 2020, dated 2023).
